{"source": "patent US11219212B2", "about": "“Herbicidal composition comprising cinmethylin and imazamox” (BASF Agro B.V., priority 2015, dated 2022)", "type_in_all_cases": "in vivo", "key": {"Abutilon theophrasti": {"test_system": "Abutilon theophrasti", "assay": "Greenhouse preemergence herbicidal activity", "details": "ABUTH, 20 DAT", "procedure": "(§1) The test plants have been seeded, separately for each species, in plastic containers in sandy loamy soil containing 5% of organic matter.\n(§2) The containers were irrigated gently to promote germination and growth and subsequently covered with transparent plastic hoods until the plants had rooted.\n(§3) The plants have been cultivated due to their individual requirements at 10-25° C. and 20-35° C. The plants were irrigated due to their necessity.\n(§4) The racemic mixture (±)-2-exo-(2-M ethylbenzyloxy)-1-methyl-4-isopropyl-7-oxabicyclo[2.2.1]heptane was used as herbicide A and formulated as emulsifiable concentrates with an active ingredient concentration of 50 g/l, 100 g/I or 750 g/I respectively.\n(§5) Imazamox (herbicide B.1) was used as a water dispersible granule (70% WG).\n(§6) In the following experiments, the herbicidal activity for the individual herbicidal compositions (solo and mixture applications) was assessed 20 days after treatment (DAT).\n(§7) The evaluation for the damage on undesired weeds caused by the chemical compositions was carried out using a scale from 0 to 100%, compared to the untreated control plants. Here, 0 means no damage and 100 means complete destruction of the plants.\n(§8) E=X+Y−(X·Y/100) where X=effect in percent using herbicide A at an application rate a; • Y=effect in percent using herbicide B at application rate b; • E=expected effect (in %) of herbicide A+herbicide B at application rates a+b."}, "Amaranthus retroflexus": {"test_system": "Amaranthus retroflexus", "assay": "Greenhouse preemergence herbicidal activity", "details": "AMARE, 20 DAT", "procedure": "as §1, §2, §3, §4, §5, §6, §7, §8"}, "Anthemis arvensis [1]": {"test_system": "Anthemis arvensis", "assay": "Greenhouse preemergence herbicidal activity", "details": "ANTAR, 20 DAT", "procedure": "as §1, §2, §3, §4, §5, §6, §7, §8"}, "Avena fatua [2]": {"test_system": "Avena fatua", "assay": "Greenhouse preemergence herbicidal activity", "details": "AVEFA, 20 DAT", "procedure": "as §1, §2, §3, §4, §5, §6, §7, §8"}, "Chenopodium album [3]": {"test_system": "Chenopodium album", "assay": "Greenhouse preemergence herbicidal activity", "details": "herbicide A solo 37.5 g ai/ha, CHEAL, 20 DAT", "procedure": "as §1, §2, §3, §4, §5, §6, §7, §8"}, "Echinochloa crus-galli": {"test_system": "Echinochloa crus-galli", "assay": "Greenhouse preemergence herbicidal activity", "details": "ECHCG, 20 DAT", "procedure": "as §1, §2, §3, §4, §5, §6, §7, §8"}, "Galium aparine": {"test_system": "Galium aparine", "assay": "Greenhouse preemergence herbicidal activity", "details": "GALAP, 20 DAT", "procedure": "as §1, §2, §3, §4, §5, §6, §7, §8"}, "Geranium dissectum": {"test_system": "Geranium dissectum", "assay": "Greenhouse preemergence herbicidal activity", "details": "herbicide A solo 125 g ai/ha, GERDI, 20 DAT", "procedure": "as §1, §2, §3, §4, §5, §6, §7, §8"}, "Lolium multiflorum": {"test_system": "Lolium multiflorum", "assay": "Greenhouse preemergence herbicidal activity", "details": "LOLMU, 20 DAT", "procedure": "as §1, §2, §3, §4, §5, §6, §7, §8"}, "Polygonum convolvulus [4]": {"test_system": "Polygonum convolvulus", "assay": "Greenhouse preemergence herbicidal activity", "details": "herbicide A solo 125 g ai/ha, POLCO, 20 DAT", "procedure": "as §1, §2, §3, §4, §5, §6, §7, §8"}, "Setaria viridis [5]": {"test_system": "Setaria viridis", "assay": "Greenhouse preemergence herbicidal activity", "details": "SETVI, 20 DAT", "procedure": "as §1, §2, §3, §4, §5, §6, §7, §8"}, "Sorghum halepense [6]": {"test_system": "Sorghum halepense", "assay": "Greenhouse preemergence herbicidal activity", "details": "herbicide A solo 62.5 g ai/ha, SORHA, 20 DAT", "procedure": "as §1, §2, §3, §4, §5, §6, §7, §8"}, "Stellaria media": {"test_system": "Stellaria media", "assay": "Greenhouse preemergence herbicidal activity", "details": "STEME, 20 DAT", "procedure": "as §1, §2, §3, §4, §5, §6, §7, §8"}, "Anthemis arvensis [7]": {"test_system": "Anthemis arvensis", "assay": "Greenhouse postemergence herbicidal activity", "details": "herbicide A solo 500 g ai/ha, ANTAR, 20 DAT", "procedure": "as §1\n(§9) For the post emergence treatment, the plants were first grown to the 2 leaf station (GS 12). Here, the herbicidal compositions were suspended or emulsified in water as distribution medium and sprayed using finely distributing nozzles.\nas §3, §4, §5, §6, §7, §8"}, "Avena fatua [8]": {"test_system": "Avena fatua", "assay": "Greenhouse postemergence herbicidal activity", "details": "herbicide A solo 43.8 g ai/ha, AVEFA, 20 DAT", "procedure": "as §1, §9, §3, §4, §5, §6, §7, §8"}, "Chenopodium album [9]": {"test_system": "Chenopodium album", "assay": "Greenhouse postemergence herbicidal activity", "details": "CHEAL, 20 DAT", "procedure": "as §1, §9, §3, §4, §5, §6, §7, §8"}, "Polygonum convolvulus [10]": {"test_system": "Polygonum convolvulus", "assay": "Greenhouse postemergence herbicidal activity", "details": "POLCO, 20 DAT", "procedure": "as §1, §9, §3, §4, §5, §6, §7, §8"}, "Setaria viridis [11]": {"test_system": "Setaria viridis", "assay": "Greenhouse postemergence herbicidal activity", "details": "SETVI, 20 DAT", "procedure": "as §1, §9, §3, §4, §5, §6, §7, §8"}, "Sorghum halepense [12]": {"test_system": "Sorghum halepense", "assay": "Greenhouse postemergence herbicidal activity", "details": "SORHA, 20 DAT", "procedure": "as §1, §9, §3, §4, §5, §6, §7, §8"}}, "data": [{"substance": "(±)-2-exo-(2-Methylbenzyloxy)-1-methyl-4-isopropyl-7-oxabicyclo[2.2.1]heptane [herbicide A]", "values": [{"measurement": "herbicidal activity", "setting": "Abutilon theophrasti; herbicide A solo 100 g ai/ha", "result": 0, "unit": "%"}, {"measurement": "herbicidal activity", "setting": "Abutilon theophrasti; herbicide A solo 200 g ai/ha", "result": 0, "unit": "%"}, {"measurement": "herbicidal activity", "setting": "Amaranthus retroflexus; herbicide A solo 25 g ai/ha", "result": 0, "unit": "%"}, {"measurement": "herbicidal activity", "setting": "Amaranthus retroflexus; herbicide A solo 37.5 g ai/ha", "result": 0, "unit": "%"}, {"measurement": "herbicidal activity", "setting": "Amaranthus retroflexus; herbicide A solo 75 g ai/ha", "result": 0, "unit": "%"}, {"measurement": "herbicidal activity", "setting": "Amaranthus retroflexus; herbicide A solo 100 g ai/ha", "result": 0, "unit": "%"}, {"measurement": "herbicidal activity", "setting": "Amaranthus retroflexus; herbicide A solo 150 g ai/ha", "result": 0, "unit": "%"}, {"measurement": "herbicidal activity", "setting": "Amaranthus retroflexus; herbicide A solo 200 g ai/ha", "result": 0, "unit": "%"}, {"measurement": "herbicidal activity", "setting": "Amaranthus retroflexus; herbicide A solo 300 g ai/ha", "result": 0, "unit": "%"}, {"measurement": "herbicidal activity", "setting": "Anthemis arvensis [1]; herbicide A solo 50 g ai/ha", "result": 0, "unit": "%"}, {"measurement": "herbicidal activity", "setting": "Anthemis arvensis [1]; herbicide A solo 62.5 g ai/ha", "result": 0, "unit": "%"}, {"measurement": "herbicidal activity", "setting": "Anthemis arvensis [1]; herbicide A solo 150 g ai/ha", "result": 0, "unit": "%"}, {"measurement": "herbicidal activity", "setting": "Anthemis arvensis [1]; herbicide A solo 200 g ai/ha", "result": 0, "unit": "%"}, {"measurement": "herbicidal activity", "setting": "Anthemis arvensis [1]; herbicide A solo 300 g ai/ha", "result": 0, "unit": "%"}, {"measurement": "herbicidal activity", "setting": "Avena fatua [2]; herbicide A solo 50 g ai/ha", "result": 0, "unit": "%"}, {"measurement": "herbicidal activity", "setting": "Avena fatua [2]; herbicide A solo 75 g ai/ha", "result": 20, "unit": "%"}, {"measurement": "herbicidal activity", "setting": "Avena fatua [2]; herbicide A solo 100 g ai/ha", "result": 20, "unit": "%"}, {"measurement": "herbicidal activity", "setting": "Avena fatua [2]; herbicide A solo 250 g ai/ha", "result": 65, "unit": "%"}, {"measurement": "herbicidal activity", "setting": "Chenopodium album [3]", "result": 20, "unit": "%"}, {"measurement": "herbicidal activity", "setting": "Echinochloa crus-galli; herbicide A solo 62.5 g ai/ha", "result": 98, "unit": "%"}, {"measurement": "herbicidal activity", "setting": "Echinochloa crus-galli; herbicide A solo 125 g ai/ha", "result": 98, "unit": "%"}, {"measurement": "herbicidal activity", "setting": "Galium aparine; herbicide A solo 25 g ai/ha", "result": 0, "unit": "%"}, {"measurement": "herbicidal activity", "setting": "Galium aparine; herbicide A solo 200 g ai/ha", "result": 30, "unit": "%"}, {"measurement": "herbicidal activity", "setting": "Geranium dissectum", "result": 70, "unit": "%"}, {"measurement": "herbicidal activity", "setting": "Lolium multiflorum; herbicide A solo 25 g ai/ha", "result": 50, "unit": "%"}, {"measurement": "herbicidal activity", "setting": "Lolium multiflorum; herbicide A solo 37.5 g ai/ha", "result": 60, "unit": "%"}, {"measurement": "herbicidal activity", "setting": "Lolium multiflorum; herbicide A solo 125 g ai/ha", "result": 90, "unit": "%"}, {"measurement": "herbicidal activity", "setting": "Polygonum convolvulus [4]", "result": 0, "unit": "%"}, {"measurement": "herbicidal activity", "setting": "Setaria viridis [5]; herbicide A solo 25 g ai/ha", "result": 75, "unit": "%"}, {"measurement": "herbicidal activity", "setting": "Setaria viridis [5]; herbicide A solo 62.5 g ai/ha", "result": 98, "unit": "%"}, {"measurement": "herbicidal activity", "setting": "Setaria viridis [5]; herbicide A solo 75 g ai/ha", "result": 98, "unit": "%"}, {"measurement": "herbicidal activity", "setting": "Sorghum halepense [6]", "result": 80, "unit": "%"}, {"measurement": "herbicidal activity", "setting": "Stellaria media; herbicide A solo 50 g ai/ha", "result": 20, "unit": "%"}, {"measurement": "herbicidal activity", "setting": "Stellaria media; herbicide A solo 75 g ai/ha", "result": 20, "unit": "%"}, {"measurement": "herbicidal activity", "setting": "Stellaria media; herbicide A solo 150 g ai/ha", "result": 30, "unit": "%"}, {"measurement": "herbicidal activity", "setting": "Anthemis arvensis [7]", "result": 65, "unit": "%"}, {"measurement": "herbicidal activity", "setting": "Avena fatua [8]", "result": 25, "unit": "%"}, {"measurement": "herbicidal activity", "setting": "Chenopodium album [9]; herbicide A solo 43.8 g ai/ha", "result": 60, "unit": "%"}, {"measurement": "herbicidal activity", "setting": "Chenopodium album [9]; herbicide A solo 62.5 g ai/ha", "result": 30, "unit": "%"}, {"measurement": "herbicidal activity", "setting": "Chenopodium album [9]; herbicide A solo 125 g ai/ha", "result": 50, "unit": "%"}, {"measurement": "herbicidal activity", "setting": "Polygonum convolvulus [10]; herbicide A solo 62.5 g ai/ha", "result": 25, "unit": "%"}, {"measurement": "herbicidal activity", "setting": "Polygonum convolvulus [10]; herbicide A solo 175 g ai/ha", "result": 50, "unit": "%"}, {"measurement": "herbicidal activity", "setting": "Polygonum convolvulus [10]; herbicide A solo 250 g ai/ha", "result": 40, "unit": "%"}, {"measurement": "herbicidal activity", "setting": "Polygonum convolvulus [10]; herbicide A solo 350 g ai/ha", "result": 50, "unit": "%"}, {"measurement": "herbicidal activity", "setting": "Setaria viridis [11]; herbicide A solo 43.8 g ai/ha", "result": 75, "unit": "%"}, {"measurement": "herbicidal activity", "setting": "Setaria viridis [11]; herbicide A solo 62.5 g ai/ha", "result": 85, "unit": "%"}, {"measurement": "herbicidal activity", "setting": "Sorghum halepense [12]; herbicide A solo 62.5 g ai/ha", "result": 40, "unit": "%"}, {"measurement": "herbicidal activity", "setting": "Sorghum halepense [12]; herbicide A solo 175 g ai/ha", "result": 50, "unit": "%"}, {"measurement": "herbicidal activity", "setting": "Sorghum halepense [12]; herbicide A solo 350 g ai/ha", "result": 70, "unit": "%"}]}]}
